Read-outs that look alike come from different tables or passages of the source. Values belong to the compound of their own block, whether it stands above or below them.
Columns and labels:
[1] = system: endothelin-1 (ET-1) synthesis in porcine coronary artery endothelial cells (PCAECs); assay: Stimulated (FCS, angiotensin II, thrombin, TNFα) ET-1 release into the medium by PCAECs (ELISA); type: cell-based; parameters: induction of ET-1 secretion (percentage increase vs vehicle-treated controls): dose or concentration left out as unconfirmed; conditions: for induction of ET-1 secretion (percentage increase vs vehicle-treated controls): stimulus alone; for effect on FCS-induced ET-1 synthesis: 10 nmol/L; for reversal by ICI182780 of the compound's inhibitory effect on FCS-stimulated ET-1 secretion: ICI182780 50 μmol/L; for inhibition of FCS-induced ET-1 secretion / inhibition of TNFα-induced ET-1 secretion / inhibition of angiotensin II-induced ET-1 secretion / inhibition of thrombin-induced ET-1 secretion / inhibition at 0.001 µM: 1 nmol/L; for effectiveness in inhibiting basal and stimulated ET-1 secretion compared with estradiol: order of potency 2-methoxyestradiol>2-hydroxyestradiol>estradiol; for inhibition at 0.001 µM: Sus scrofa, Endothelial cell
From the text: (§1) Hearts from female pigs were obtained from a local slaughter house and placed in ice-cold oxygenated DMEM (Gibco, Rockville, Md. now Invitrogen, Carlsbad Calif., hereinafter “Gibco”) containing antibiotics (Gibco). The epicardial coronary arteries were isolated, and the fat and connective tissue were removed. Endothelial cells were isolated by collagenase/dispase digestion (Ohbayashi, A., et al., Biochem. Brophys. Res. Commun. 202:504 (1994), the disclosure of which is incorporated herein be reference (“Ohbayashi, et al.”)). The isolated cells were washed in DMEM/F12 medium (Gibco) supplemented with 10% fetal calf serum (“FCS”) (HyClone Laboratories, Logan, Utah) and endothelial cell growth supplement (Clonetics, Walkersville, Md.), and cells were grown to confluence under standard tissue culture conditions. The purity of the cultures, which was characterized by immunostaining with factor VIII antigen (Sigma, St. Louis, Mo.) and by assaying the preferential uptake of the fluorescent probe Dil-acetylated low density lipoprotein (Biomedical Technologies, Inc., Stoughton, Mass.), (Ohbayashi, et al.) was 98%. Cells were passaged by trypsinization, and cells in second and third passage were used for all experiments in this example.
(§2) To study the effects of estradiol and its metabolites on ET-1 synthesis in porcine coronary artery endothelial cells (“PCAECs”) (Gibco), confluent monolayers of PCAECs were washed twice with HBSS (Gibco) and treated with DMEM/F12 (gibco) supplemented with 0.4% bovine serum albumin (BSA) containing or lacking 0.001 to 1 μmol/L of estradiol, 2-hydroxyestradiol, or 2-methoxyestradiol (Steraloids, Newport, R.I.). […] The supernatants were collected for ET-1 analysis, and the samples were frozen at −70° C. until analyzed. ET-1 levels were measured with the BIOTRAK™ (Amersham Pharmacia Biotech Europe Gmbh, Dubendorf, Switzerland) high-sensitivity endothelin-1 human ELISA system.
Cells were also treated as above in the presence and absence of the estradiol receptor (“ER”) antagonist, ICI182780 (50 μmol/L; Tocris Cookson Ltd, Ballwin, Mo.). To analyze whether the inhibitory effects of estradiol were mediated by means of ER-β, the effects of genistein (0.001 to 10 μmol/L) (Sigma) were investigated. To evaluate whether the effects of estradiol were mimicked by various clinically used estrogens, the cells were treated as above, in the presence and absence of ICI182780, with 10 nmol/L of estradiol valerate, estradiol cypionate, estradiol benzoate, 17α-estradiol, estrone, estriol or estrone sulfate (all from Sigma), and the ET-1 synthesis in response to FCS (2.5%) was analyzed.

[2] = system: endothelin-1 (ET-1) synthesis in porcine coronary artery endothelial cells (PCAECs); assay: Basal ET-1 release into the medium by PCAECs (ELISA); type: cell-based; conditions: for effect on basal ET secretion: 2 nmol/L, PCAECs incubated 4, 8, 12 and 24 hours
From the text: as §1, §2
To analyze the effects of estradiol and its metabolites on the basal synthesis of ET-1, cells were pretreated with or without the various above-listed agents and with and without ICI182780 for 24 hours and were fed fresh DMEM/F12 supplemented with 0.4%; BSA (Sigma) and the respective treatments. The supernatants were collected after 4, 8, 12, and 24 hours and the ET-1 levels were analyzed.

[3] = system: mitogen-activated protein kinase (MAPK) activity in PCAECs; assay: FCS-induced MAPK activity in PCAECs; type: cell-based, porcine
From the text: Hearts from female pigs were obtained from a local slaughter house and placed in ice-cold oxygenated DMEM (Gibco, Rockville, Md. now Invitrogen, Carlsbad Calif., hereinafter “Gibco”) containing antibiotics (Gibco). The epicardial coronary arteries were isolated, and the fat and connective tissue were removed. Endothelial cells were isolated by collagenase/dispase digestion (Ohbayashi, A., et al., Biochem. Brophys. Res. Commun. 202:504 (1994), the disclosure of which is incorporated herein be reference (“Ohbayashi, et al.”)). […] The purity of the cultures, which was characterized by immunostaining with factor VIII antigen (Sigma, St. Louis, Mo.) and by assaying the preferential uptake of the fluorescent probe Dil-acetylated low density lipoprotein (Biomedical Technologies, Inc., Stoughton, Mass.), (Ohbayashi, et al.) was 98%. Cells were passaged by trypsinization, and cells in second and third passage were used for all experiments in this example. […] Some cells were pretreated for 1 hour with ICI182780 before treatment with the test agents. After stimulation, the cells were washed with ice-cold PBS and extraction buffer (50 mmol/L β-glycerophosphate, 1.5 mmol/L EGTA, 1 mmol/L dithiothreitol, 100 μmol/L Na3VO4, 10 μg/mL aprotinin, 5 μg/mL pepstatin, […] leupeptin, and 1 mmol/L benzamidine) (all from Sigma), scraped off the plates, and sonicated for 20 seconds in 0.5 mL of extraction buffer. The extracts were collected, the cytosolic fractions were separated by centrifuging the extracts at 100,000×g for 20 minutes at 4° C., and the supernatants were diluted to a concentration of 1 mg protein/mL and stored at -70° C. for mitogen-activated protein kinase (“MAPK”) activity assays. The MAPK activity in the cytosolic extracts was quantified as described by Dubey, R. K., et al., Arterioscler. Thromb. Vasc. Biol. 20:964 (2000), the disclosure of which is incorporated herein by reference.

[4] = 1 nmol/L, pretreated 24 hours, FCS 2.5%
[5] = angiotensin II 100 nmol/L, 4 hours

Compound: angiotensin II [stimulatory agent for ET-1 secretion]
- induction of ET-1 secretion (percentage increase vs vehicle-treated controls) ([1]; 4 hours): 116±7%

Compound: C[C@]12CC[C@@H]3c4ccc(O)cc4CC[C@H]3[C@@H]1CC[C@H]2O [17α-estradiol]
- effect on FCS-induced ET-1 synthesis ([1]; FCS 2.5%, 4 hours): unable to lower ET-1 secretion

Compound: O=c1c(-c2ccc(O)cc2)coc2cc(O)cc(O)c12 [Genistein, genistein]
- concentrations at which inhibitory effects on ET-1 secretion were observed ([1]; FCS 2.5%-stimulated, 4 hours, tested 0.001 to 10 μmol/L): ≥ 1 µmol/L
- reversal by ICI182780 of the compound's inhibitory effect on FCS-stimulated ET-1 secretion ([1]; FCS 2.5%, 4 hours): not reversed

Compound: C[C@]12CC[C@@H]3c4cc(O)c(O)cc4CC[C@H]3[C@@H]1CC[C@@H]2O [2-hydroxyestradiol, estra-1,3,5 (10)-triene-2,3,17-triol (17β)]
- effect on basal ET secretion [2]: inhibited
- inhibition of FCS-induced MAPK activity [3, 4]: 34±4%
- potency in inhibiting FCS-induced MAPK activity compared with estradiol ([3]; pretreated 24 hours, FCS 2.5%): more potent
- inhibition of FCS-induced ET-1 secretion ([1]; FCS 2.5%, 4 hours): 31%
- inhibition of TNFα-induced ET-1 secretion ([1]; TNFα 10 ng/mL, 4 hours): 35%
- inhibition of angiotensin II-induced ET-1 secretion [1, 5]: 33%
- inhibition of thrombin-induced ET-1 secretion ([1]; thrombin 4 U/mL, 4 hours): 40%
- reversal by ICI182780 of the compound's inhibitory effect on FCS-stimulated ET-1 secretion ([1]; FCS 2.5%, 4 hours): not
- effectiveness in inhibiting basal and stimulated ET-1 secretion compared with estradiol [1]: more effective

Compound: thrombin
- induction of ET-1 secretion (percentage increase vs vehicle-treated controls) ([1]; 4 hours): 98±5%

Compound: C[C@]12CC[C@@H]3c4ccc(O)cc4CC[C@H]3[C@@H]1CC[C@@H]2OC(=O)CCC1CCCC1 [estradiol cypionate]
- effect on FCS-induced ET-1 synthesis ([1]; FCS 2.5%, 4 hours): inhibited
- reversal by ICI182780 of the compound's inhibitory effect on FCS-stimulated ET-1 secretion ([1]; FCS 2.5%, 4 hours): reversed

Compound: CCCCC(=O)O[C@H]1CC[C@H]2[C@@H]3CCc4cc(O)ccc4[C@H]3CC[C@]12C [estradiol valerate]
- effect on FCS-induced ET-1 synthesis ([1]; FCS 2.5%, 4 hours): inhibited
- reversal by ICI182780 of the compound's inhibitory effect on FCS-stimulated ET-1 secretion ([1]; FCS 2.5%, 4 hours): reversed

Compound: TNFα
- induction of ET-1 secretion (percentage increase vs vehicle-treated controls) ([1]; 4 hours): 120±8%

Compound: C[C@]12CC[C@@H]3c4ccc(O)cc4CC[C@H]3[C@@H]1CC[C@@H]2O [estradiol, 17β-estradiol]
- effect on basal ET secretion [2]: inhibited
- inhibition at 0.002 µM ([2]; Sus scrofa, Endothelial cell, 8 h, read-out: inhibition of basal synthesis of ET-1): 19 ± 2%
- reversal by ICI182780 of the compound's inhibitory effect on FCS-induced MAPK activity ([3]; ICI182780 50 μmol/L pretreatment, compound 10 nmol/L): completely reversed
- inhibition at 0.001 µM ([3]; Sus scrofa, 1 nmol/L, pretreated 24 hours, FCS 2.5%): 19 ± 2.6%
- ET-1 secretion induced in response to FCS (percentage increase) in presence of compound ([1]; 1 nmol/L compound, FCS 2.5%, 4 hours, control 138±16%): 82±8%
- ET-1 secretion induced in response to TNFα (percentage increase) in presence of compound ([1]; 1 nmol/L compound, TNFα 10 ng/mL, 4 hours, control 120±8%): 68±5%
- ET-1 secretion induced in response to angiotensin II (percentage increase) in presence of compound ([1]; 1 nmol/L compound, angiotensin II 100 nmol/L, 4 hours, control 116±7%): 73±6%
- ET-1 secretion induced in response to thrombin (percentage increase) in presence of compound ([1]; 1 nmol/L compound, thrombin 4 U/mL, 4 hours, control 98±6%): 53±4%
- reversal by ICI182780 of the compound's inhibitory effect on FCS-stimulated ET-1 secretion ([1]; FCS 2.5%, 4 hours): completely blocked
- inhibition at 0.001 µM ([1]; FCS 2.5%, 4 hours, read-out: inhibition of FCS-induced ET-1 secretion): 22%
- inhibition at 0.001 µM ([1]; TNFα 10 ng/mL, 4 hours, read-out: inhibition of TNFα-induced ET-1 secretion): 26%
- inhibition at 0.001 µM ([1]; angiotensin II 100 nmol/L, 4 hours, read-out: inhibition of angiotensin II-induced ET-1 secretion): 20%
- inhibition at 0.001 µM ([1]; thrombin 4 U/mL, 4 hours, read-out: inhibition of thrombin-induced ET-1 secretion): 24%

Compound: estrone sulfate
- effect on FCS-induced ET-1 synthesis ([1]; FCS 2.5%, 4 hours): unable to lower ET-1 secretion

Compound: C[C@]12CC[C@@H]3c4ccc(O)cc4C[C@@H](CCCCCCCCC[S+]([O-])CCCC(F)(F)C(F)(F)F)[C@H]3[C@@H]1CC[C@@H]2O (some centres unmarked) [ICI182780]
- effect of compound alone on basal or FCS-stimulated ET-1 synthesis ([1]; 50 μmol/L): did not influence

- MAPK activity ([3]; growth-arrested cells, FCS 2.5% for 10 minutes, unstimulated 0.187, PD98059 at 10 μmol/L): 0.7 μmol/min/mg protein
Compound: COc1cccc(-c2cc(=O)c3ccccc3o2)c1N [PD98059]

Compound: C[C@]12CC[C@@H]3c4ccc(OC(=O)c5ccccc5)cc4CC[C@H]3[C@@H]1CC[C@@H]2O [estradiol benzoate]
- effect on FCS-induced ET-1 synthesis ([1]; FCS 2.5%, 4 hours): inhibited
- reversal by ICI182780 of the compound's inhibitory effect on FCS-stimulated ET-1 secretion ([1]; FCS 2.5%, 4 hours): reversed

- inhibition of FCS-induced MAPK activity [3, 4]: 46±4.7%
- potency in inhibiting FCS-induced MAPK activity compared with estradiol ([3]; pretreated 24 hours, FCS 2.5%): more potent
Compound: COc1cc2c(cc1O)CC[C@@H]1[C@@H]2CC[C@]2(C)[C@@H](O)CC[C@@H]12 [2-methoxyestradiol, estra-1,3,5 (10)-triene-2-methoxy-3,17-diol (17β)]
- effect on basal ET secretion [2]: inhibited
- inhibition of FCS-induced ET-1 secretion ([1]; FCS 2.5%, 4 hours): 44%
- inhibition of TNFα-induced ET-1 secretion ([1]; TNFα 10 ng/mL, 4 hours): 56%
- inhibition of angiotensin II-induced ET-1 secretion [1, 5]: 39%
- inhibition of thrombin-induced ET-1 secretion ([1]; thrombin 4 U/mL, 4 hours): 46%
- reversal by ICI182780 of the compound's inhibitory effect on FCS-stimulated ET-1 secretion ([1]; FCS 2.5%, 4 hours): not
- effectiveness in inhibiting basal and stimulated ET-1 secretion compared with estradiol [1]: more effective

Compound: C[C@]12CC[C@@H]3c4ccc(O)cc4CC[C@H]3[C@@H]1C[C@@H](O)[C@@H]2O [estriol]
- effect on FCS-induced ET-1 synthesis ([1]; FCS 2.5%, 4 hours): unable to lower ET-1 secretion
